Experimental findings from patent US9193733B2, “Piperidinylcyclobutyl substituted pyrrolopyridine and pyrrolopyrimidine derivatives as JAK inhibitors” (Incyte Corporation, priority 2012, dated 2015) are described below.

Format in all cases: biochemical
Assay [1] concerns human JAK1 (a.a. 837-1142) catalytic domain. Put plainly: In vitro JAK kinase assay (HTRF, phosphorylation of a biotinylated peptide), JAK1. The note with it: ratio of JAK2 IC50 to JAK1 IC50, 1 mM ATP. As for the experimental part: (§1) Compounds herein were tested for inhibitory activity of JAK targets according to the following in vitro assay described in Park et al., Analytical Biochemistry 1999, 269, 94-104. The catalytic domains of human JAK1 (a.a. 837-1142) and JAK2 (a.a. 828-1132) with an N-terminal His tag were expressed using baculovirus in insect cells and purified. The catalytic activity of JAK1 and JAK2 was assayed by measuring the phosphorylation of a biotinylated peptide. The phosphorylated peptide was detected by homogenous time resolved fluorescence (HTRF). IC50s of compounds were measured for each kinase in the 40 microL reactions that contain the enzyme, ATP and 500 nM peptide in 50 mM Tris (pH 7.8) buffer with 100 mM NaCl, 5 mM DTT, and 0.1 mg/mL (0.01%) BSA. For the 1 mM IC50 measurements, ATP concentration in the reactions was 1 mM. Reactions were carried out at room temperature for 1 hour and then stopped with 20 μL 45 mM EDTA, 300 nM SA-APC, 6 nM Eu-Py20 in assay buffer (Perkin Elmer, Boston, Mass.). Binding to the Europium labeled antibody took place for 40 minutes and HTRF signal was measured on a Fusion plate reader (Perkin Elmer, Boston, Mass.). See Table A for data related to compounds of the Examples (at 1 mM). Data is indicated as ranges: <20 nM (+), 20 to <150 nM (++), 150 to 500 nM (+++).
A general note: Time-resolved FRET reads energy transfer from a long-lived donor to a nearby acceptor.

Assay [2] concerns the target T1, human JAK1 (a.a. 837-1142) catalytic domain (Homo sapiens, UniProt P23458).
T1 construct: human JAK1 (a.a. 837-1142) and JAK2 (a.a. 828-1132); His tag (N); made in house; host or cells: insect cells (baculovirus)
The description is as above. The note with it: 1 mM ATP. On the procedure: as §1

For assay [3], the target named is T2, human JAK2 (a.a. 828-1132) catalytic domain (Homo sapiens, UniProt O60674).
T2 construct: human JAK1 (a.a. 837-1142) and JAK2 (a.a. 828-1132); His tag (N); made in house; host or cells: insect cells (baculovirus)
In words: In vitro JAK kinase assay (HTRF, phosphorylation of a biotinylated peptide), JAK2. The following applies: 1 mM ATP. On the procedure:
as §1

T2 sequence (O60674 828-1132): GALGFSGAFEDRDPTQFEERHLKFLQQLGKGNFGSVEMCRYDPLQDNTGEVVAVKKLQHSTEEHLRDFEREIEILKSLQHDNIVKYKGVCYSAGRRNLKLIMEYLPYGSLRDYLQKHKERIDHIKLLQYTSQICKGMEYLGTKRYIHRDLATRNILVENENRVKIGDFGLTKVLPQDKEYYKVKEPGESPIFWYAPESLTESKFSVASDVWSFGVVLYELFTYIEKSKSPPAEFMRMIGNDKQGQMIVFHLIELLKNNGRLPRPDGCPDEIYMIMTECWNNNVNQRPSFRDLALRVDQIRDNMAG
T1 sequence (P23458 849-1154): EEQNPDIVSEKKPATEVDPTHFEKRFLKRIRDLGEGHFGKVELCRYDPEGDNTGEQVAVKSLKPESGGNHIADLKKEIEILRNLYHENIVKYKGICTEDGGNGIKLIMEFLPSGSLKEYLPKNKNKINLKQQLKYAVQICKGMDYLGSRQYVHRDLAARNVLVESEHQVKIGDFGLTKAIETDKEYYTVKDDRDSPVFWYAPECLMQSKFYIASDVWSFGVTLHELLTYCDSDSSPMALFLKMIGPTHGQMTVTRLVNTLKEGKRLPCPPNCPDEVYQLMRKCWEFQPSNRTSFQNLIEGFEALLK

Take `N#CC[C@]1(n2cc(-c3ncnc4[nH]ccc34)cn2)C[C@H](N2CCC(Nc3cc(CN[C@H]4C[C@H](O)C4)cc(C(F)(F)F)n3)CC2)C1` [Example 34, {trans-3-(4-{[4-{[(trans-3-hydroxycyclobutyl)amino]methyl}-6-(trifluoromethyl)pyridin-2-yl]amino}piperidin-1-yl)-1-[4-(7H-pyrrolo[2,3-d]pyrimidin-4-yl)-1H-pyrazol-1-yl]cyclobutyl}acetonitrile]: the JAK2/JAK1 in assay [1] is over 10. For the same compound, the IC50 in assay [2] was under 20 nM; in assay [3], 20 to 150 nM.

Regarding `CC1(C)CN(Cc2cc(NC3CCN([C@H]4C[C@](CC#N)(n5cc(-c6ncnc7[nH]ccc67)cn5)C4)CC3)nc(C(F)(F)F)c2)C1` [Example 35, {trans-3-(4-{[4-[(3,3-dimethylazetidin-1-yl)methyl]-6-(trifluoromethyl)pyridin-2-yl]amino}piperidin-1-yl)-1-[4-(7H-pyrrolo[2,3-d]pyrimidin-4-yl)-1H-pyrazol-1-yl]cyclobutyl}acetonitrile], the JAK2/JAK1 in assay [1] is listed as over 10. The IC50 in assay [2] was under 20 nM; in assay [3] it was 20 to 150 nM.

With `N#CC[C@]1(n2cc(-c3ncnc4[nH]ccc34)cn2)C[C@H](N2CCC(Nc3cc(CN4CCC(F)(F)C4)cc(C(F)(F)F)n3)CC2)C1` [Example 36, {trans-3-(4-{[4-[(3,3-difluoropyrrolidin-1-yl)methyl]-6-(trifluoromethyl)pyridin-2-yl]amino}piperidin-1-yl)-1-[4-(7H-pyrrolo[2,3-d]pyrimidin-4-yl)-1H-pyrazol-1-yl]cyclobutyl}acetonitrile], in assay [1], the JAK2/JAK1 is listed as over 10. Also, the IC50 is under 20 nM in assay [2] and 150 to 500 nM in assay [3].

For `CN(Cc1cc(NC2CCN([C@H]3C[C@](CC#N)(n4cc(-c5ncnc6[nH]ccc56)cn4)C3)CC2)nc(C(F)(F)F)c1)C1CC1` [Example 37, {trans-3-(4-{[4-{[cyclopropyl(methyl)amino]methyl}-6-(trifluoromethyl)pyridin-2-yl]amino}piperidin-1-yl)-1-[4-(7H-pyrrolo[2,3-d]pyrimidin-4-yl)-1H-pyrazol-1-yl]cyclobutyl}acetonitrile], the JAK2/JAK1 in assay [1] is reported as over 10. Further, the IC50 in assay [2] was under 20 nM; in assay [3] it was 150 to 500 nM.

On to `N#CC[C@]1(n2cc(-c3ncnc4[nH]ccc34)cn2)C[C@H](N2CCC(Nc3cc(CN4CCC4)cc(C(F)(F)F)n3)CC2)C1` [Example 39, {trans-3-(4-{[4-(azetidin-1-ylmethyl)-6-(trifluoromethyl)pyridin-2-yl]amino}piperidin-1-yl)-1-[4-(7H-pyrrolo[2,3-d]pyrimidin-4-yl)-1H-pyrazol-1-yl]cyclobutyl}acetonitrile], for which the JAK2/JAK1 in assay [1] is given as over 10. For the same compound, the IC50 in assay [2] is under 20 nM; in assay [3], 20 to 150 nM.

Turning to `N#CC[C@]1(n2cc(-c3ncnc4[nH]ccc34)cn2)C[C@H](N2CCC(Nc3cc(CN4CCOCC4)cc(C(F)(F)F)n3)CC2)C1` [Example 40, {trans-3-(4-{[4-(morpholin-4-ylmethyl)-6-(trifluoromethyl)pyridin-2-yl]amino}piperidin-1-yl)-1-[4-(7H-pyrrolo[2,3-d]pyrimidin-4-yl)-1H-pyrazol-1-yl]cyclobutyl}acetonitrile], the JAK2/JAK1 in assay [1] is over 10. Moreover, the IC50 is under 20 nM in assay [2] and 20 to 150 nM in assay [3].

Regarding `N#CC[C@]1(n2cc(-c3ncnc4[nH]ccc34)cn2)C[C@H](N2CCC(Nc3cc(CN4CC(O)C4)cc(C(F)(F)F)n3)CC2)C1` [Example 41, {trans-3-(4-{[4-[(3-hydroxyazetidin-1-yl)methyl]-6-(trifluoromethyl)pyridin-2-yl]amino}piperidin-1-yl)-1-[4-(7H-pyrrolo[2,3-d]pyrimidin-4-yl)-1H-pyrazol-1-yl]cyclobutyl}acetonitrile], the JAK2/JAK1 in assay [1] was over 10. The results for the IC50 in assay [2] and in assay [3] were under 20 nM and 20 to 150 nM, respectively.

`CN(CCO)Cc1cc(NC2CCN([C@H]3C[C@](CC#N)(n4cc(-c5ncnc6[nH]ccc56)cn4)C3)CC2)nc(C(F)(F)F)c1` [Example 42, {trans-3-(4-{[4-{[(2-hydroxyethyl)(methyl)amino]methyl}-6-(trifluoromethyl)pyridin-2-yl]amino}piperidin-1-yl)-1-[4-(7H-pyrrolo[2,3-d]pyrimidin-4-yl)-1H-pyrazol-1-yl]cyclobutyl}acetonitrile]: the JAK2/JAK1 in assay [1] is listed as over 10. The IC50 in assay [2] is under 20 nM; in assay [3] it was 20 to 150 nM.

Regarding `N#CC[C@]1(n2cc(-c3ncnc4[nH]ccc34)cn2)C[C@H](N2CCC(Nc3cc(CN4CC[C@H](O)C4)cc(C(F)(F)F)n3)CC2)C1` [Example 43, {trans-3-(4-{[4-{[(3S)-3-hydroxypyrrolidin-1-yl]methyl}-6-(trifluoromethyl)pyridin-2-yl]amino}piperidin-1-yl)-1-[4-(7H-pyrrolo[2,3-d]pyrimidin-4-yl)-1H-pyrazol-1-yl]cyclobutyl}acetonitrile], the JAK2/JAK1 in assay [1] is recorded as over 10. The values for the IC50 in assay [2] and in assay [3] were under 20 nM and 20 to 150 nM, respectively.

For `N#CC[C@]1(n2cc(-c3ncnc4[nH]ccc34)cn2)C[C@H](N2CCC(Nc3cc(CN4CC[C@@H](O)C4)cc(C(F)(F)F)n3)CC2)C1` [Example 44, {trans-3-(4-{[4-{[(3R)-3-hydroxypyrrolidin-1-yl]methyl}-6-(trifluoromethyl)pyridin-2-yl]amino}piperidin-1-yl)-1-[4-(7H-pyrrolo[2,3-d]pyrimidin-4-yl)-1H-pyrazol-1-yl]cyclobutyl}acetonitrile], the JAK2/JAK1 in assay [1] is listed as over 10. In addition, the results for the IC50 in assay [2] and in assay [3] were under 20 nM and 20 to 150 nM, respectively.

For the compound `COCc1cc(NC2CCN([C@H]3C[C@](CC#N)(n4cc(-c5ncnc6[nH]ccc56)cn4)C3)CC2)nc(C(F)(F)F)c1` [Example 45, {trans-3-(4-{[4-(methoxymethyl)-6-(trifluoromethyl)pyridin-2-yl]amino}piperidin-1-yl)-1-[4-(7H-pyrrolo[2,3-d]pyrimidin-4-yl)-1H-pyrazol-1-yl]cyclobutyl}acetonitrile], in assay [1], the JAK2/JAK1 was over 10. The 50% inhibitory concentration (IC50) in assay [2] was under 20 nM; in assay [3], 20 to 150 nM.

Consider `N#CC[C@]1(n2cc(-c3ncnc4[nH]ccc34)cn2)C[C@H](N2CCC(Nc3cc(CN4CC5(COC5)C4)cc(C(F)(F)F)n3)CC2)C1` [Example 46, {trans-3-(4-{[4-(2-oxa-6-azaspiro[3.3]hept-6-ylmethyl)-6-(trifluoromethyl)pyridin-2-yl]amino}piperidin-1-yl)-1-[4-(7H-pyrrolo[2,3-d]pyrimidin-4-yl)-1H-pyrazol-1-yl]cyclobutyl}acetonitrile], for which the JAK2/JAK1 in assay [1] is listed as over 10. Moreover, the IC50 is under 20 nM in assay [2] and 20 to 150 nM in assay [3].

For `CN(c1cc(CO)cc(C(F)(F)F)n1)C1CCN([C@H]2C[C@](CC#N)(n3cc(-c4ncnc5[nH]ccc45)cn3)C2)CC1` [Example 47, {trans-3-{4-[[4-(hydroxymethyl)-6-(trifluoromethyl)pyridin-2-yl](methyl)amino]piperidin-1-yl}-1-[4-(7H-pyrrolo[2,3-d]pyrimidin-4-yl)-1H-pyrazol-1-yl]cyclobutyl}acetonitrile], in assay [1], the JAK2/JAK1 was over 10. Also, the IC50 is under 20 nM in assay [2] and 150 to 500 nM in assay [3].

On to `CCNCc1cc(N(C)C2CCN([C@H]3C[C@](CC#N)(n4cc(-c5ncnc6[nH]ccc56)cn4)C3)CC2)nc(C(F)(F)F)c1` [Example 48, {trans-3-{4-[[4-[(ethylamino)methyl]-6-(trifluoromethyl)pyridin-2-yl](methyl)amino]piperidin-1-yl}-1-[4-(7H-pyrrolo[2,3-d]pyrimidin-4-yl)-1H-pyrazol-1-yl]cyclobutyl}acetonitrile], for which, in assay [1], the JAK2/JAK1 is recorded as over 10. In addition, the results for the IC50 in assay [2] and in assay [3] were under 20 nM and 20 to 150 nM, respectively.

For `N#CC[C@]1(n2cc(-c3ncnc4[nH]ccc34)cn2)C[C@H](N2CCC(Oc3cc(C4(O)COC4)cc(C(F)(F)F)n3)CC2)C1` [Example 49, {trans-3-(4-{[4-(3-hydroxyoxetan-3-yl)-6-(trifluoromethyl)pyridin-2-yl]oxy}piperidin-1-yl)-1-[4-(7H-pyrrolo[2,3-d]pyrimidin-4-yl)-1H-pyrazol-1-yl]cyclobutyl}acetonitrile], the JAK2/JAK1 in assay [1] was over 10. Also, the results for the IC50 in assay [2] and in assay [3] were under 20 nM and 20 to 150 nM, respectively.

Consider `N#CC[C@]1(n2cc(-c3ncnc4[nH]ccc34)cn2)C[C@H](N2CCC(Oc3cc(C4(N)COC4)cc(C(F)(F)F)n3)CC2)C1` [Example 50, {trans-3-(4-{[4-(3-aminooxetan-3-yl)-6-(trifluoromethyl)pyridin-2-yl]oxy}piperidin-1-yl)-1-[4-(7H-pyrrolo[2,3-d]pyrimidin-4-yl)-1H-pyrazol-1-yl]cyclobutyl}acetonitrile], for which, in assay [1], the JAK2/JAK1 is recorded as over 10. Also, the values for the IC50 in assay [2] and in assay [3] were under 20 nM and 20 to 150 nM, respectively.

One may read the IC50 as the concentration that gives 50% inhibition. High values mean a need for much substance, low ones inhibition by little substance.
